This passage reports TGI results from PubChem BioAssay (NCI).

Test systems include SN12C renal; NCI/ADR-RES ovarian; HOP-92 NSCLC; SNB-75 CNS; PC-3 prostate; MDA-N; 786-0 renal; OVCAR-3 ovarian; M14 melanoma; UACC-257 melanoma; MDA-MB-231 breast; HCT-116 colon; HCC-2998 colon; HS 578T breast; UACC-62 melanoma; SF-539 CNS.
Experiment in all cases: NCI tumour cell line growth inhibition, 48 h

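Interpolation was linear, between the two tested concentrations surrounding the appropriate level; five concentrations were tested over 48 hours in 96-well plates. Definition used: TGI = concentration required for complete inhibition of growth.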 Where a SMILES comes first, the peptide text is derived from it.

Take `CCC(C)C(NC(=O)C(CCCCN)NC(=O)C(NC(=O)C(CCC(N)=O)NC(=O)C(N)CCCNC(=N)N)C(C)CC)C(=O)NC(Cc1c[nH]c2ccccc12)C(=O)NC(Cc1ccccc1)C(=O)NC(CCC(N)=O)C(=O)NC(CC(N)=O)C(=O)NC(CCCNC(=N)N)C(=O)NC(CCCNC(=N)N)C(=O)NC(CCSC)C(=O)NC(CCCCN)C(=O)NC(Cc1c[nH]c2ccccc12)C(=O)NC(CCCCN)C(=O)NC(CCCCN)C(=O)N1CCCC1C(=O)NC(C)C(=O)NC(CCCCN)C(=O)NC(CCCNC(=N)N)C(=O)NC(CCCCN)C(=O)NC(CC(C)C)C(=O)NC(Cc1ccccc1)C(=O)NCC(=O)O` (centres undefined) (H-RQIKIWFQNRRMKWKKPAKRKLFG-OH; configuration not given here): the TGI with SN12C renal, with NCI/ADR-RES ovarian, with HOP-92 NSCLC, with SNB-75 CNS, in the experiment with PC-3 prostate and in the experiment with MDA-N was more than 25 µM in each case. Further, the TGI in the experiment with 786-0 renal, with OVCAR-3 ovarian, with M14 melanoma, with UACC-257 melanoma, in the experiment on MDA-MB-231 breast and in the experiment on HCT-116 colon was more than 25 µM throughout. Further, the TGI with HCC-2998 colon and in the experiment with HS 578T breast was more than 25 µM throughout.
`CCN(CC)CCn1nc(N)c2nc3cc(Cl)ccc3nc21`: the TGI in the experiment with SN12C renal, in the experiment on NCI/ADR-RES ovarian, in the experiment with HOP-92 NSCLC, in the experiment on UACC-62 melanoma, in the experiment with PC-3 prostate and in the experiment on MDA-N was more than 100 µM each time. Besides, the TGI with 786-0 renal, in the experiment with M14 melanoma, with UACC-257 melanoma, in the experiment on MDA-MB-231 breast, in the experiment with HCT-116 colon and in the experiment on HCC-2998 colon was more than 100 µM in each case. In addition, the TGI in the experiment with HS 578T breast was more than 100 µM.
As for `Cn1ccc(C(=O)NCCOCCNC(=O)c2ccn(C)c(=O)c2O)c(O)c1=O`, the TGI in the experiment on SN12C renal, in the experiment on NCI/ADR-RES ovarian, in the experiment on HOP-92 NSCLC, in the experiment with UACC-62 melanoma, with PC-3 prostate and in the experiment with MDA-N was more than 100 µM each time. The TGI in the experiment with 786-0 renal, in the experiment with UACC-257 melanoma, in the experiment with MDA-MB-231 breast, with HCT-116 colon, with HCC-2998 colon and in the experiment with HS 578T breast was more than 100 µM throughout.
Regarding `COc1ccc2c(c1)CCc1c-2[nH]c2ccc(OC)cc12`, the TGI with SN12C renal, in the experiment on NCI/ADR-RES ovarian, in the experiment with HOP-92 NSCLC, with UACC-62 melanoma, in the experiment with SNB-75 CNS and in the experiment with PC-3 prostate was more than 100 µM each time. Besides, the TGI in the experiment on MDA-N, with 786-0 renal, in the experiment on OVCAR-3 ovarian, in the experiment on M14 melanoma, in the experiment with UACC-257 melanoma and in the experiment with MDA-MB-231 breast was more than 100 µM throughout. Further, the TGI with HCT-116 colon, in the experiment on HCC-2998 colon and with HS 578T breast was more than 100 µM each time.
As for `CCN(CC)/C(Cl)=C(Cl)\C(=C1\Nc2ccc(OC)cc21)[N+](=O)[O-]`, the TGI in the experiment with SN12C renal was more than 100 µM; in the experiment with NCI/ADR-RES ovarian, more than 100 µM; in the experiment on HOP-92 NSCLC, more than 100 µM; with UACC-62 melanoma, more than 100 µM; in the experiment with SNB-75 CNS it was 81.8 µM; with PC-3 prostate, more than 100 µM. Besides, the TGI in the experiment with MDA-N is more than 100 µM; in the experiment on 786-0 renal, more than 100 µM; with OVCAR-3 ovarian, 57.3 µM; with M14 melanoma, more than 100 µM; in the experiment on UACC-257 melanoma, more than 100 µM; with MDA-MB-231 breast it was more than 100 µM. In addition, the TGI with HCT-116 colon, with HCC-2998 colon and with HS 578T breast was more than 100 µM in each case.
As for `CC1=C(Br)C(Br)=C(C)S1=O`, the TGI in the experiment on SN12C renal is 30.6 µM; with NCI/ADR-RES ovarian, more than 100 µM; with HOP-92 NSCLC, more than 100 µM; in the experiment with UACC-62 melanoma, 85.8 µM; with PC-3 prostate, 48.8 µM; in the experiment with MDA-N, 28.7 µM. Besides, the TGI in the experiment with 786-0 renal is 55.9 µM; with OVCAR-3 ovarian, 23.9 µM; in the experiment on M14 melanoma, 33.8 µM; in the experiment with UACC-257 melanoma, 32.1 µM; in the experiment on MDA-MB-231 breast, 61.5 µM; with HCT-116 colon it was 18.2 µM. The TGI in the experiment on HCC-2998 colon is 34.9 µM; with SF-539 CNS, 27.7 µM; in the experiment on HS 578T breast, more than 100 µM.
In the case of `c1cc(-c2ncc(-c3ccc4c(c3)CCCO4)o2)ccn1`, the TGI was more than 100 µM in the experiment on SN12C renal; 23.1 µM in the experiment with NCI/ADR-RES ovarian; 92.5 µM in the experiment with HOP-92 NSCLC; 66.3 µM in the experiment on UACC-62 melanoma; 53.5 µM with SNB-75 CNS; 46.5 µM with PC-3 prostate. Also, the TGI with MDA-N is 23.1 µM; in the experiment with 786-0 renal, more than 100 µM; in the experiment with OVCAR-3 ovarian it was 29.9 µM; with M14 melanoma, 94.5 µM; in the experiment on UACC-257 melanoma it was 43.5 µM; in the experiment with MDA-MB-231 breast it was more than 100 µM. Also, the TGI is 39.3 µM with HCT-116 colon, 45.2 µM in the experiment on SF-539 CNS and more than 100 µM in the experiment with HS 578T breast.
